Reference: patent US4584305A, “Aiding the regression of neoplastic disease with 2,3,5,6-tetrahydro-6-phenylimidazo[2,1-b]thiazole” (Janssen Pharmaceutica N.V., priority 1981, dated 1986)

Assay: Toxicity (mouse LD50)
Type: in vivo

Structure (SMILES): c1ccc(C2CN3CCSC3=N2)cc1 (stereo not shown) [levamisole, 2,3,5,6-tetrahydro-6-phenyl-imidazo[2,1-b]thiazole]
- toxicity: devoid of toxicity
